Laboratory results reported in patent publication US20170355959A1, “METHODS FOR MOBILISING POPULATIONS OF STEM CELLS” (Imperial Innovations Limited, priority 2014, published 2017).

How the values were obtained:
Type in all cases: in vivo, mice
[1] = test system: HSPCs; assay: Mobilization of HSPCs into peripheral blood (CFU-HPC assay)
Experimental: (§1) Mice were administered the β-adrenergic agonists isoproterenol (10 mg/kg i.p.), clenbuterol (5 mg/kg i.p.) and BRL 37344 (10 mg/kg i.p.), the cannabinoid receptor agonists ACEA (10 mg/kg i.p.) and GP1a (5 mg/kg i.p.), or vehicle either on 4 consecutive days or 2 hours prior to the cull. 1 hour after the last injection, mice were administered the CXCR4 antagonist AMD3100 (5 mg/kg i.p.) or vehicle. 1 hour later their blood was collected via cardiac puncture for enumeration of circulating CFU-HPCs and CFU-Fs. Mice were administered murine G-CSF (100 μg/kg i.p.) or vehicle on 4 consecutive days. On day 5, blood was collected via cardiac puncture for enumeration of circulating HSPCs.
(§2) Harvested peripheral blood or perfusate was red blood cell-lysed and 1×10^5 cells were added to tissue culture-treated petri dishes containing 1 ml of Methocult™ (M3434; StemCell Technologies) to select for CFU-HPCs. Cultures were incubated at 37° C. and quantified on day 12. Similarly, 1×10^6 bone marrow cells harvested by bone marrow flush of the hind limb femur were plated for CFU-HPCs.

[2] = test system: free fatty acids; assay: Free fatty acid assay in blood plasma; details: treatment over 4 days
Experimental: as §1
Free fatty acid content in blood plasma was quantified using a serum/plasma fatty acid detection Kit (Zen Bio) and the assay was performed according to the manufacturers' instructions. Data are expressed as μM concentration of free fatty acids.

[3] = test system: endocannabinoids and N-acyl ethanolamides; assay: Lipid mediator quantification in bone marrow by UPLC/ESI-MS/MS
Experimental: Plasma and bone marrow flush (pool of 3 mice, n=1) were processed in order for the extraction of endocannabinoids and congeners (Astarita and Piomelli, 2009; Kingsley and Marnett, 2009). Samples were analysed on an electrospray (ESI) tandem quadrupole Xevo TQ-S mass spectrometer (MS/MS; Waters) coupled to an Acquity Ultrahigh Pressure Chromatography (UPLC) system, and the concentration of analytes was calculated (TargetLynx). Further details concerning extraction and analysis can be found in the Supplemental Experimental Procedures.
Bone marrow flushed from the femurs of 3 mice were pooled (6 ml in total) per treatment to give an n=1 sample. This volume was required to achieve sufficient concentrations of endocannabinoids and N-acyl ethanolamides for detection by UPLC/ESI-MS/MS. Extraction of lipids was carried out by addition of chloroform:methanol (2:1, v/v) (Astarita and Piomelli, 2009; Kingsley and Mamett, 2009). Specifically, ice cold chloroform:methanol was added to each bone marrow supernatant (ml per pooled bone marrow sample), followed by the internal standards AEA-d8 (20 ng) and 2AG-d8 (40 ng). The resulting suspensions were kept on ice for 30 min with occasional vortexing and centrifuged at 5000 rpm for 8 min, to separate the organic and aqueous phases. The organic layer (bottom) from each sample was then removed into a clean vial. The supernatant was evaporated under a fine stream of nitrogen. Once dried the extract was reconstituted in 1 ml of chloroform and semi-purified by SPE (Guo et al, 2010). Briefly, the silica cartridge was equilibrated with 5×1 ml cholorform, the extract was applied, the cartridge was washed with 2×1 ml chloroform and the endocannabinoids eluted with 5×1 ml chloroform:methanol (2:1 v/v). The remaining residue, reconstituted in 100 μL ethanol was stored at −20° C., for no more than 1 week, awaiting UPLC/ESI-MS/MS analysis.
All analysis was performed on an electrospray (ESI) tandem quadrupole Xevo TQ-S mass spectrometer (Waters) coupled to an Acquity Ultrahigh Pressure Chromatography (UPLC) system. The system was controlled by MassLynx v4.1 Software. TargetLynx was used to construct calibration lines and calculate the concentration of analytes of interest. Optimised ESI-MS/MS conditions were achieved through the use of Intellistart within MassLynx software. Individual standards (100 pg/μl) were introduced into the spectrometer by direct infusion via the Xevo TQ-S integrated syringe pump (flow rate 10 μl/min) combined with UPLC solvent flow (rate 0.2 mL/min). All analytes were monitored on the positive ionisation mode. Capillary voltage was set at 2000V, source temperature at 150° C., desolvation temperature at 400° C. and the cone voltage at 20 V. […]

[4] = test system: HPCs; assay: In situ perfusion of mouse hind limb, CFU-HPCs in perfusate; details: four day pretreatment, b3 adrenergic agonist in combination with FAAH inhibitor
Experimental: Mice were administered BRL 37344 (10 mg/kg i.p.) or vehicle on 4 consecutive days. 1 hour after the last injection, the mice were anaesthetized. The femoral vein and artery were exposed and cannulated in situ immediately after the hind limb was isolated by occlusion of the surrounding arteries as previously described (Pitchford et al, 2009; Pitchford et al, 2010). Perfusion buffer was infused via the arterial cannula and removed from the venous cannula using a Minipuls Peristaltic Pump (Anachem). The hind limb was initially infused with AMD3100 (0.1 mM) or vehicle for 10 minutes using an infusion/withdrawal pump (Harvard Instruments) and was further perfused for 50 minutes with perfusion buffer (Pitchford et al, 2010). The perfusate was collected over 60 minutes and then centrifuged and resuspended in DMEM (Gibco) +20% fetal bovine serum for enumeration of CFU-HPCs and CFU-Fs.
as §2

[5] = 4 days, in combination with FAAH inhibition, versus FAAH inhibition only

C[C@H](Cc1ccc(OCC(=O)O)cc1)NC[C@H](O)c1cccc(Cl)c1 [BRL37344]
pre-treatment time needed for HSPC mobilization ([1]; 2 h versus 4 d pre-treatment, then AMD3100): required the pre-treatment of mice over 4 days to see this effect
circulating HSPC numbers ([1]; pre-treated once daily for 4 days, then AMD3100, blood 1 hour later): significantly boosted circulating numbers of HSPCs and CFU-Fs as compared to that observed with isoproterenol and AMD3100 in combination
FFA levels in plasma [2]: an increase
bone marrow levels of 2-AG [3, 5]: significantly increased
bone marrow levels of DHEA [3, 5]: significantly increased
bone marrow levels of PEA [3, 5]: significantly increased
bone marrow levels of other N-acyl ethanolamides, including AEA ([3]; following administration in vivo): remained unchanged
HPC egress from the bone marrow in response to infusion of the CXCR4 antagonist [4]: significantly enhanced both HPC and MSC egress from the bone marrow
